Measurements as given in patent publication US20250368628A1, “METHODS AND COMPOUNDS FOR MODULATING INHERITED GENETIC DISEASES” (Design Therapeutics, Inc., priority 2022, published 2025).
pEC50: −log10 of the molar value.

What follows are compounds tested on Myotonic Dystrophy 1 affected patient fibroblasts (Coriel GM04602; 1600 CTG repeats) (assay: DM1 foci reduction assay (EC50 assay; CAG10-Cy3 FISH, foci per nucleus)). Conditions: Homo sapiens, Fibroblast; DM1 patient fibroblasts, 48 h treatment, foci per nucleus; read-out: DM1 EC50, 48 h.
Type: cell-based
Experimental: DM1 Foci Reduction Assay Methods
Myotonic Dystrophy 1 affected patient fibroblasts (Coriel GM04602; 1600 CTG repeats) and wild type fibroblasts (Coriell GM07492; control line) were cultured separately in Gibco DMEM (1×)+4.5 g/L D-Glucose+L-Glutamine+[…] Sodium Pyruvate, supplemented with 10% FBS and 1× Pen/Strep. Cells were maintained in an incubator at 37° C. and 5% CO2 with media refreshed every 48-72 hours.
At 90-95% confluency, both cell lines were harvested using Trypl-E then pelleted at 500×g for 5 minutes and were resuspended in fresh media. DM1 fibroblasts were seeded in Agilent 96 well black plates at a density of 5,000 cells/well in 200 μL media; and 8 wells were reserved for control fibroblasts. Plates were returned to incubator for 24 hours at 37° C. and 5% CO2.
Compounds were diluted from 10 mM stock to 1 mM in DMSO and then diluted once more to 6 μM (2× concentration) in media. Media was removed from all plates and cells were replenished with 100 μL media. Cells were treated in 8-point dose response, 1:3 fold dilution, 3 μM top dose via addition of 100 μL of 6 μM (2× concentration) compound to the 100 μL media with cells. Plates were returned to incubator for 48 hours at 37° C. and 5% CO2.
Following treatment, compounds were removed, and plates were washed with PBS, then cells were fixed in 75 μL 4% PFA solution for 20 minutes at room temperature. Plates were washed twice with PBS and twice with cold 70% ethanol before permeabilization with 250 μL cold 70% ethanol for 24-72 hours at −20° C.
After permeabilization, plates were washed once with a 30% formamide and 2×SSC buffer and rehydrated in that buffer for 15 minutes at room temperature. Cells were incubated overnight at 37° C. in 75 μL of a hybridization solution containing 30% formamide, 2×SSC, 25 mg/mL dextran sulfate, 2.5 mg/mL BSA, 0.2 μg/mL Herring sperm DNA, 2 mM vanadyl-ribonucleoside complex, and 5 nM CAG10-Cy3 probe.
Plates were washed once with 30% formamide in 2×SSC buffer, then twice with the buffer for 30 minutes at 37° C., 300 RPM in an incubating plate shaker. Cells were stained with 75 μL of 2.5 μg/mL DAPI in PBS for 5 minutes at room temperature. Plates were then washed twice with PBS and stored in 250 μL PBS. Plates were sealed with adhesive foil and wiped down with 70% ethanol.
Cells were imaged on a Cytation5 with a 20× objective sampling from 4 areas of each well. Nuclei were captured under DAPI channel and foci under RFP channel. Plates were analyzed on an average foci per nucleus per well basis.

Structure (SMILES)	pEC50
CCN(CC)CCCC[C@H](NC(=O)c1cccc(C(=O)O)c1)C(=O)NCCOCCOCCOCCOCCOCCNC(=O)c1nc(NC(=O)c2cc(NC(=O)CCNC(=O)c3nc(NC(=O)CCCNC(=O)c4cc(NC(=O)c5nc(NC(=O)CCNC(=O)c6cc(NC(=O)c7nccn7C)cn6C)cn5C)cn4C)cn3C)cn2C)cn1C [Compound B-220]	< 6.00
Cn1cc(NC(=O)c2nc(NC(=O)CCNC(=O)c3cc(NC(=O)c4nccn4C)cn3C)cn2C)cc1C(=O)NCCCC(=O)Nc1cn(C)c(C(=O)NCCC(=O)Nc2cc(C(=O)Nc3cn(C)c(C(=O)N4CCC(N5CCNCC5)CC4)n3)n(C)c2)n1 [Compound B-106]	< 6.00
CCN(CC)CCCC[C@H](NC(=O)c1ccncc1)C(=O)NCCOCCOCCOCCOCCOCCNC(=O)CCNC(=O)c1nc(NC(=O)c2cc(NC(=O)CCNC(=O)c3nc(NC(=O)CCCNC(=O)c4cc(NC(=O)c5nc(NC(=O)CCNC(=O)c6cc(NC(=O)c7nccn7C)cn6C)cn5C)cn4C)cn3C)cn2C)cn1C [Compound B-93]	< 6.00
CCCCCNC(=O)CCNC(=O)c1nc(NC(=O)c2cc(NC(=O)CCNC(=O)c3nc(NC(=O)CCCNC(=O)c4cc(NC(=O)c5nc(NC(=O)CCNC(=O)c6cc(NC(=O)c7nccn7C)cn6C)cn5C)cn4CCCCC(=O)N(CCOCCOCCOCCOC)CCOCCOCCOCCOC)cn3C)cn2C)cn1C [Compound B-261]	6.30 to 7.00
CCCN(CCC)C(=O)c1nc(NC(=O)c2cc(NC(=O)CCNC(=O)c3nc(NC(=O)CCCNC(=O)c4cc(NC(=O)c5nc(NC(=O)CCNC(=O)c6cc(NC(=O)c7nccn7C)cn6C)cn5C)cn4C)cn3C)cn2C)cn1C [Compound B-104]	< 6.00
CC(C)CCCN1CCC(C#CC#CCNC(=O)CCNC(=O)c2nc(NC(=O)c3cc(NC(=O)CCNC(=O)c4nc(NC(=O)CCCNC(=O)c5cc(NC(=O)c6nc(NC(=O)CCNC(=O)c7cc(NC(=O)c8nccn8C)cn7C)cn6C)cn5C)cn4C)cn3C)cn2C)CC1 [Compound B-191]	6.30 to 7.00
CCCNC(=O)CCNC(=O)c1nc(NC(=O)c2cc(NC(=O)CCNC(=O)c3nc(NC(=O)CCCNC(=O)c4cc(NC(=O)c5nc(NC(=O)c6cc(NC(=O)CCNC(=O)c7nccn7C)cn6C)cn5C)cn4C)cn3C)cn2C)cn1C [Compound B-83]	< 6.00
Cn1cc(NC(=O)c2nc(NC(=O)CCNC(=O)c3cc(NC(=O)c4nccn4C)cn3C)cn2C)cc1C(=O)NCCCC(=O)Nc1cn(C)c(C(=O)NCCC(=O)Nc2cc(C(=O)Nc3cn(C)c(C(=O)NCCC(=O)N[C@H]4CC[C@H](O)CC4)n3)n(C)c2)n1 [Compound B-54]	6.30 to 7.00
CN(C)C(=O)c1nc(NC(=O)c2cc(NC(=O)CCNC(=O)c3nc(NC(=O)CCCNC(=O)c4cc(NC(=O)c5nc(NC(=O)CCNC(=O)c6cc(NC(=O)c7nccn7C)cn6C)cn5C)cn4C)cn3C)cn2C)cn1C [Compound B-314]	< 6.00
Cn1cnc(NC(=O)c2cc(NC(=O)CCNC(=O)c3nc(NC(=O)CCCNC(=O)c4cc(NC(=O)c5nc(NC(=O)CCNC(=O)c6cc(NC(=O)c7nccn7C)cn6C)cn5C)cn4C)cn3C)cn2C)c1 [Compound B-243]	< 6.00
Cn1cc(NC(=O)c2nc(NC(=O)CCNC(=O)c3cc(NC(=O)c4nccn4C)cn3C)cn2C)cc1C(=O)NCCCC(=O)Nc1cn(C)c(C(=O)NCCC(=O)Nc2cc(C(=O)Nc3cn(C)c(C(=O)NCCC(=O)N4CC(c5cnc(CN(CCCCO)CCCCO)[nH]5)C4)n3)n(C)c2)n1 [Compound B-70]	6.30 to 7.00
Cn1cc(NC(=O)c2nc(NC(=O)CCNC(=O)c3cc(NC(=O)c4nccn4C)cn3C)cn2C)cc1C(=O)NCCCC(=O)Nc1cn(C)c(C(=O)NCCC(=O)Nc2cc(C(=O)Nc3cn(C)c(C(=O)NCCC(=O)N4CCN(C5CCN(c6ccc([N+](=O)[O-])cc6)CC5)CC4)n3)n(C)c2)n1 [Compound B-29, 1-Methyl-4-{1-methyl-4-[3-({1-methyl-4-[4-({1-methyl-4-[1-methyl-4-(3-{[1-methyl-4-(1-methylimidazole-2-amido)pyrrol-2-yl]formamido}propanamido)imidazole-2-amido]pyrrol-2-yl}formamido)butanamido]imidazol-2-yl}formamido)propanamido]pyrrole-2-amido}-N-(3-{4-[1-(4-nitrophenyl)piperidin-4-yl]piperazin-1-yl}-3-oxopropyl)imidazole-2-carboxamide]	< 6.00
COCCOCCOCCOCCN(CCOCCOCCOCCOC)C(=O)CCCCn1cc(NC(=O)c2nc(NC(=O)CCNC(=O)c3cc(NC(=O)c4nccn4C)cn3C)cn2C)cc1C(=O)NCCCC(=O)Nc1cn(C)c(C(=O)NCCC(=O)Nc2cc(C(=O)Nc3cn(C)c(C(=O)NCCC(=O)N4CCC(C#CC#CC5CCN(C(C)=O)CC5)CC4)n3)n(C)c2)n1 [Compound B-259]	< 6.00
Cn1cc(NC(=O)c2nc(NC(=O)CCNC(=O)c3cc(NC(=O)c4nccn4C)cn3C)cn2C)cc1C(=O)NCCCC(=O)Nc1cn(C)c(C(=O)NCCC(=O)Nc2cc(C(=O)Nc3cn(C)c(C(=O)NCCC(=O)NCCOCCOCCOCCN4CCC(C#CC#CC5CCN(Cc6ccc(C(C)(C)C)cc6)CC5)CC4)n3)n(C)c2)n1 [Compound B-176]	< 6.00
Cn1cc(NC(=O)c2nc(NC(=O)CCNC(=O)c3cc(NC(=O)c4nccn4C)cn3C)cn2C)cc1C(=O)NCCCC(=O)Nc1cn(C)c(C(=O)NCCC(=O)Nc2cc(C(=O)Nc3cn(C)c(C(=O)NCCC(=O)NCC#CC#CC4CCN(Cc5ccc(C(C)(C)C)cc5)CC4)n3)n(C)c2)n1 [Compound B-189]	< 6.00
Cn1cc(NC(=O)c2nc(NC(=O)CCNC(=O)c3cc(NC(=O)c4nccn4C)cn3C)cn2C)cc1C(=O)NCCCC(=O)Nc1cn(C)c(C(=O)NCCC(=O)Nc2cc(C(=O)Nc3cn(C)c(C(=O)NCCCCNc4cccc(C(=O)O)c4)n3)n(C)c2)n1 [Compound B-218]	6.30 to 7.00
Cn1cc(NC(=O)c2nc(NC(=O)CCNC(=O)c3cc(NC(=O)c4nccn4C)cn3C)cn2C)cc1C(=O)NCCCC(=O)Nc1cn(C)c(C(=O)NCCC(=O)Nc2cc(C(=O)Nc3cn(C)c(C(=O)NCCC(=O)NCC#CC#CC4CCNCC4)n3)n(C)c2)n1 [Compound B-137, 1-methyl-4-(3-{[1-methyl-4-(1-methylimidazole-2-amido)pyrrol-2-yl]formamido}propanamido)-N-(1-methyl-5-{[3-({1-methyl-2-[(2-{[1-methyl-5-({1-methyl-2-[(2-{[5-(piperidin-4-yl)penta-2,4-diyn-1-yl]carbamoyl}ethyl)carbamoyl]imidazol-4-yl}carbamoyl)pyrrol-3-yl]carbamoyl}ethyl)carbamoyl]imidazol-4-yl}carbamoyl)propyl]carbamoyl}pyrrol-3-yl)imidazole-2-carboxamide]	< 6.00
CCCNC(=O)CCNC(=O)c1nc(NC(=O)c2cc(NC(=O)CCNC(=O)c3nc(NC(=O)CCCNC(=O)c4cc(NC(=O)c5nc(NC(=O)CCNC(=O)c6cc(NC(=O)c7nccn7C)cn6C)cn5C)cn4CCCCCCNC(=O)CCOCCOCCOCCOCCOCCOC)cn3C)cn2C)cn1C [Compound B-238]	6.30 to 7.00
Cn1cc(NC(=O)c2nc(NC(=O)CCNC(=O)c3cc(NC(=O)c4nccn4C)cn3C)cn2C)cc1C(=O)NCCCC(=O)Nc1cn(C)c(C(=O)NCCC(=O)Nc2cc(C(=O)Nc3cn(C)c(C(=O)NCCC(=O)N4CCC(C#CC5(O)CCN(C(=O)OCC6c7ccccc7-c7ccccc76)CC5)CC4)n3)n(C)c2)n1 [Compound B-197]	6.00 to 6.30
CN(C)CCCNC(=O)c1cc(NC(=O)CCNC(=O)c2nc(NC(=O)CCCNC(=O)c3cc(NC(=O)c4nc(NC(=O)CCNC(=O)c5cc(NC(=O)c6nccn6C)cn5C)cn4C)cn3CCCCCCN=[N+]=[N-])cn2C)cn1C [Compound B-254]	< 6.00
COC(=O)c1cccc(OCCOCCOCCNC(=O)c2nc(NC(=O)c3cc(NC(=O)CCNC(=O)c4nc(NC(=O)CCCNC(=O)c5cc(NC(=O)c6nc(NC(=O)CCNC(=O)c7cc(NC(=O)c8nccn8C)cn7C)cn6C)cn5C)cn4C)cn3C)cn2C)c1 [Compound B-339]	6.00 to 6.30
CCCNC(=O)c1cc(NC(=O)c2nc(NC(=O)CCNC(=O)c3cc(NC(=O)c4nc(NC(=O)[C@H](N)CCNC(=O)c5cc(NC(=O)c6nc(NC(=O)CCNC(=O)c7cc(NC(=O)c8nccn8C)cn7C)cn6C)cn5C)cn4C)cn3C)cn2C)cn1C [Compound B-6]	6.00 to 6.30

Same assay, conditions: Homo sapiens, Fibroblast; DM1 patient fibroblasts, foci per nucleus, 48 h treatment; read-out: DM1 EC50, 48 h

Structure (SMILES)	pEC50
CN(C)CCCCNC(=O)c1nc(NC(=O)c2cc(NC(=O)CCNC(=O)c3nc(NC(=O)CC4(CNC(=O)c5cc(NC(=O)c6nc(NC(=O)CCNC(=O)c7cc(NC(=O)c8nccn8C)cn7C)cn6C)cn5C)CC4)cn3C)cn2C)cn1C [Compound B-434]	> 7.00
CC(C)n1cc(NC(=O)c2nc(NC(=O)CCNC(=O)c3cc(NC(=O)c4nccn4C)cn3C)cn2C)cc1C(=O)NCC1(CC(=O)Nc2cn(C)c(C(=O)NCCC(=O)Nc3cc(C(=O)Nc4cn(C)c(C(=O)NCCCCN(C)C)n4)n(C)c3)n2)CC1 [Compound B-441]	> 7.00
